Data set [1] relates to mice. The data set is described as follows: Fluorescence intensity in mice after intramuscular injection of LNP@mRNA (luciferase mRNA). Format: in vivo. Conditions: for maximum fluorescence intensity: intramuscular injection of LNP@mRNA (compound and other three lipids), FIG. 7. As to the method:
(§1) Compounds 1, 2, 17, 27 or 33 was each dissolved in the first solution with cholesterol, DOPE and PEG-DMG in a molar ratio of 35:46.5:16:2.5, and luciferase mRNA was dissolved in the second solution. […] Microfluidics was utilized to quickly mix the two phases, and dialysis or tangential flow was utilized to replace the buffer environment with PBS (pH 7.4) and thus remove ethanol, so as to prepare and afford five kinds of LNP@mRNAs, respectively.
(§2) The prepared LNP@mRNAs were each injected into mice via tail vein or muscle, and the fluorescence intensities and organ distribution in mice were determined 6 hours later.
The prepared mRNA@LNPs were each injected into mice via intramuscular injection, and the fluorescence intensities and organ distribution in mice were determined 6 hours later.

The test system of data set [2] is mice. The data set is described as follows: Organ distribution of mRNA expression in mice after intravenous (tail vein) injection of LNP@mRNA. Conditions: 6 hours after intravenous (tail vein) injection, anatomical image. Format: in vivo. As to the method: as §1, §2
Data set [3] is described as follows: Particle size, PDI and encapsulation efficiency of LNP@mRNA. Format: physicochemical. Conditions: Example 26: LNP@mRNA of compound, cholesterol, DOPE, PEG-DMG 35:46.5:16:2.5; luciferase mRNA. The protocol:
as §1
Microfluidics was utilized to quickly mix the two phases, and dialysis or tangential flow was utilized to replace the buffer environment with PBS (pH 7.4) and thus remove ethanol, so as to prepare and afford LNP@mRNA.
The particle size, PDI and encapsulation efficiency of each of the above-mentioned LNP@mRNAs were determined, and the results were successively shown in Table 3.

Assay in data set [4]: as above
Format: physicochemical. Conditions: Example 26 LNP@mRNA, summary of Table 1.

Results on 5 compounds are retold here after patent publication US11786609B2, “Lipid compound as well as lipid vector, nucleic acid lipid nanoparticle composition, and pharmaceutical preparation comprising the same” (PURECODON (HONG KONG) BIOPHARMA LIMITED, priority 2021, dated 2023).

Turning to `CCCCCCC(CCCC)C(=O)OCCCCOC(=O)CCN(CCCN(C)CCCN(CCC(=O)OCCCCOC(=O)C(CCCC)CCCCCC)CCC(=O)OCCCCOC(=O)C(CCCC)CCCCCC)CCC(=O)OCCCCOC(=O)C(CCCC)CCCCCC` (centres unmarked) [Compound 33], the maximum fluorescence intensity in data set [1] is recorded as 1.59*10^7. Moreover, in data set [1] (intramuscular injection, ratio of maximum fluorescence intensities), the “expression relative to LNP@mRNA prepared by Compound 27” value is 46.9 times. Further, in data set [2], the “mRNA expression in liver” value was “mainly expressed in liver” and the “mRNA expression in spleen” value is “some mRNA was expressed in spleen”. In data set [3], this compound gave an Encapsulation efficiency of 96%, a PDI of 0.11 and a Particle size of 86 nm. Moreover, in data set [4], the “encapsulation efficiency (in words)” value is given as “relatively high encapsulation efficiency” and the “particle size (in words)” value is reported as “relatively small particle size”.

Turning to `CCCCCCC(CCCC)C(=O)OCCCCCCN(CCCCCCOC(=O)C(CCCC)CCCCCC)CCCN(C)CCCN(CCCCCCOC(=O)C(CCCC)CCCCCC)CCCCCCOC(=O)C(CCCC)CCCCCC` (centres unmarked) [Compound 27], the maximum fluorescence intensity in data set [1] was 3.39*10^5. In data set [2], the “mRNA expression in liver” value was “few mRNA was expressed in liver” and the “mRNA expression in spleen” value was “mainly expressed in spleen”. In data set [3], this compound returned an Encapsulation efficiency of 57%, a PDI of 0.21 and a Particle size of 90 nm. Further, the “particle size (in words)” value in data set [4] is “relatively small particle size”.

In data set [3], `CCCCCCCCC(CCCCCC)C(=O)OCCCCCCN(CCCCCCOC(=O)C(CCCCCC)CCCCCCCC)CCCN(C)CCCN(CCCCCCOC(=O)C(CCCCCC)CCCCCCCC)CCCCCCOC(=O)C(CCCCCC)CCCCCCCC` (centres unmarked) [Compound 17] displayed an Encapsulation efficiency of 96%, a PDI of 0.19 and a Particle size of 184 nm. Besides, the “encapsulation efficiency (in words)” value in data set [4] is recorded as “relatively high encapsulation efficiency”.

As for `CCCCCCC(CCCC)C(=O)OCCN(CCCN(C)CCCN(CCOC(=O)C(CCCC)CCCCCC)CCOC(=O)C(CCCC)CCCCCC)CCOC(=O)C(CCCC)CCCCCC` (centres unmarked) [Compound 2], in data set [2], the “mRNA expression in liver” value is “few mRNA was expressed in liver” and the “mRNA expression in spleen” value is given as “mainly expressed in spleen”. In data set [3], this compound gave an Encapsulation efficiency of 86%, a PDI of 0.20 and a Particle size of 84 nm. In data set [4], the “encapsulation efficiency (in words)” value is “relatively high encapsulation efficiency” and the “particle size (in words)” value is on record as “relatively small particle size”.

As to `CCCCCCCCC(CCCCCC)C(=O)OCCN(CCCN(C)CCCN(CCOC(=O)C(CCCCCC)CCCCCCCC)CCOC(=O)C(CCCCCC)CCCCCCCC)CCOC(=O)C(CCCCCC)CCCCCCCC` (centres unmarked) [Compound 1], in data set [3], the Encapsulation efficiency was found to be 96%, the PDI is reported as 0.14 and the Particle size is reported as 95 nm. In addition, in data set [4], the “encapsulation efficiency (in words)” value was “relatively high encapsulation efficiency” and the “particle size (in words)” value was “relatively small particle size”.
